# Assay results as given in PubChem BioAssay AID651676 (Sanford-Burnham Center for Chemical Genomics, 2012).
# Calls of active or inactive are those of the source.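 Rule for the calls: active = EC50 concentration giving half the maximal stem cell survival boost at or below 20 µM; inactive = the rest.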
# Test system: hiPSC single-cell survival, ATPlite luminescence
# Assay: hiPSC dissociated-cell viability enhancement – luminescence, SAR follow-up (AID 651676)
row,SMILES,EC50
1,Cn1c(=O)c2c(ncn2CC(=O)NCc2cccnc2)n(C)c1=O,> 80 µM (inactive)
2,COc1ccc(NC(=O)/C(Cl)=C(/Cl)S(=O)(=O)Cc2ccc(C)cc2)cn1,16.6 µM
3,COc1ccc(Cn2c(O)c(C=NCCCn3ccnc3)c(=O)[nH]c2=O)cc1,> 80 µM (inactive)
4,COc1ccc(CS(=O)(=O)/C(Cl)=C(/Cl)C(=O)Nc2ccc(OC)nc2)cc1,14.1 µM
5,CC(C)NC(=O)c1ccc2c(c1)S(=O)(=O)c1ccccc1C2=O,> 80 µM (inactive)
6,O=S(=O)(c1cccc2cnccc12)N1CCCNCC1,7.12 µM
7,O=C(OCn1ncc(Br)c(Br)c1=O)c1ccccc1Cl,6.27 µM
8,O=C(Nc1ccncc1)c1cc(S(=O)(=O)N2CCOCC2)ccc1Cl,26.3 µM (inactive)
9,O=C(OCn1ncc(Cl)c(Cl)c1=O)c1cccc(C(F)(F)F)c1,21.6 µM (inactive)
10,O=C(Nc1ccncc1)c1cc(S(=O)(=O)N2CCCC2)ccc1Cl,20.6 µM (inactive)
11,CC(C)n1c(O)c(C2c3cc(Cl)ccc3Oc3[nH]c(=O)n(C(C)C)c(=O)c32)c(=O)[nH]c1=O (stereo not drawn),42.3 µM (inactive)
12,NC(=O)c1ccc(NC(=O)CCC(=O)c2cccs2)cc1,10.5 µM
13,O=C(Nc1nc(-c2ccncc2)cs1)C1COc2ccccc2O1 (stereo not drawn),3.63 µM
